We go through one molecule from article PMC4509728, “Crystal Structures Reveal that the Reaction Mechanism of Imidazoleglycerol-Phosphate Dehydratase Is Controlled by Switching Mn(II) Coordination” (Structure(London, England:1993), 2015).

The test has as its target T1, IGPD2 (construct B) (Arabidopsis thaliana, UniProt O23346, E73Q).
T1 construct: gene HISN5B; construct B, residues 69-272, signal peptide removed and further N-terminal truncation; pET24a, E. coli BL21(DE3); homo 24mer, site formed by three chains
T1 sequence (O23346 69-272 E73Q): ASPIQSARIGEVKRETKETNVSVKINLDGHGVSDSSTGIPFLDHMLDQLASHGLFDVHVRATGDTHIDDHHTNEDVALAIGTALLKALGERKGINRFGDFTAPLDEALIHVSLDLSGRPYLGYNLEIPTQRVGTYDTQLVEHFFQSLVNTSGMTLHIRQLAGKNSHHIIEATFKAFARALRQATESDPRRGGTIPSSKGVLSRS
Description: X-ray crystallography of the co-crystal ([…] Å form A). To be noted: inactive mutant, Mn(II), mixed occupancy with 2R3S IGP at the same site. The class given is binding.

Turning to `O=P(O)(O)OC[C@H](O)[C@@H](O)c1cnc[nH]1` [2S3S diastereoisomer of IGP], the “X-ray crystallography of the co-crystal (1.12 Å form A)” value is given as “Both diastereoisomers bind at the same site”.
